Assay results as given in ChEMBL document CHEMBL2086254, “Synthesis and identification of novel indolo[2,3-a]pyrimido[5,4-c]carbazoles as a new class of anti-cancer agents” (Eur J Med Chem, 2012).

Experiments:
Assay type in all cases: functional
MDA-MB-468 = test: Cytotoxicity against human MDA-MB-468 cells assessed as cell growth at 10 uM after 48 hrs by SRB assay relative to control; details: MDA-MB-468, 48 h, read-out: Activity
SW-620 = test: Cytotoxicity against human SW620 cells assessed as cell growth at 10 uM after 48 hrs by SRB assay relative to control; details: SW-620, 48 h, read-out: Activity
A498 = test: Cytotoxicity against human A498 cells assessed as cell growth at 10 uM after 48 hrs by SRB assay relative to control; details: A498, 48 h, read-out: Activity
MDA-MB-435 = test: Cytotoxicity against human MDA-MB-435 cells assessed cell growth at 10 uM after 48 hrs by SRB assay relative to control
SF-295 = test: Cytotoxicity against human SF295 cells assessed as cell growth at 10 uM after 48 hrs by SRB assay relative to control; details: SF-295, 48 h, read-out: Activity
SK-MEL-2 = test: Cytotoxicity against human SK-MEL-2 cells assessed as cell growth at 10 uM after 48 hrs by SRB assay relative to control; details: SK-MEL-2, 48 h, read-out: Activity
RPMI-8226 = test: Cytotoxicity against human RPMI8226 cells assessed as cell growth at 10 uM after 48 hrs by SRB assay relative to control; details: RPMI-8226, 48 h, read-out: Activity
HCT-15 = test: Cytotoxicity against human HCT15 cells assessed as cell growth at 10 uM after 48 hrs by SRB assay relative to control; details: HCT-15, 48 h, read-out: Activity
ACHN = test: Cytotoxicity against human ACHN cells assessed as cell growth at 10 uM after 48 hrs by SRB assay relative to control; details: read-out: Activity
MCF7 = test: Cytotoxicity against human MCF7 cells assessed as cell growth at 10 uM after 48 hrs by SRB assay relative to control; details: MCF7, 48 h, read-out: Activity
RXF 393 = test: Cytotoxicity against human RXF393 cells assessed as cell growth at 10 uM after 48 hrs by SRB assay relative to control; details: RXF 393, 48 h, read-out: Activity
SNB-75 = test: Cytotoxicity against human SNB75 cells assessed as cell growth at 10 uM after 48 hrs by SRB assay relative to control; details: SNB-75, 48 h, read-out: Activity
KM12 = test: Cytotoxicity against human KM12 cells assessed as cell growth at 10 uM after 48 hrs by SRB assay relative to control; details: KM12, 48 h, read-out: Activity
NCI-H23 = test: Cytotoxicity against human NCI-H23 cells assessed as cell growth at 10 uM after 48 hrs by SRB assay relative to control; details: NCI-H23, 48 h, read-out: Activity
T47D = test: Cytotoxicity against human T47D cells assessed as cell growth at 10 uM after 48 hrs by SRB assay relative to control; details: read-out: Activity
SF-539 = test: Cytotoxicity against human SF539 cells assessed as cell growth at 10 uM after 48 hrs by SRB assay relative to control; details: SF-539, 48 h, read-out: Activity
HOP-62 = test: Cytotoxicity against human HOP62 cells assessed as cell growth at 10 uM after 48 hrs by SRB assay relative to control; details: HOP-62, 48 h, read-out: Activity
U-251 = test: Cytotoxicity against human U251 cells assessed as cell growth at 10 uM after 48 hrs by SRB assay relative to control; details: U-251, 48 h, read-out: Activity
BT-549 = test: Cytotoxicity against human BT549 cells assessed as cell growth at 10 uM after 48 hrs by SRB assay relative to control; details: BT-549, 48 h, read-out: Activity
NCI/ADR-RES = test: Cytotoxicity against human NCI/ADR-RES cells assessed as cell growth at 10 uM after 48 hrs by SRB assay relative to control; details: read-out: Activity
UO-31 = test: Cytotoxicity against human UO31 cells assessed as cell growth at 10 uM after 48 hrs by SRB assay relative to control; details: UO-31, 48 h, read-out: Activity
[1] = Cytotoxicity against human Hs 578T cells assessed as cell growth at 10 uM after 48 hrs by SRB assay relative to control; details: read-out: Activity
TK-10 = test: Cytotoxicity against human TK10 cells assessed as cell growth at 10 uM after 48 hrs by SRB assay relative to control; details: TK-10, 48 h, read-out: Activity
Malme-3M = test: Cytotoxicity against human MALME-3M cells assessed as cell growth at 10 uM after 48 hrs by SRB assay relative to control; details: read-out: Activity
SF-268 = test: Cytotoxicity against human SF268 cells assessed as cell growth at 10 uM after 48 hrs by SRB assay relative to control; details: SF-268, 48 h, read-out: Activity
UACC-257 = test: Cytotoxicity against human UACC257 cells assessed as cell growth at 10 uM after 48 hrs by SRB assay relative to control; details: UACC-257, 48 h, read-out: Activity
SK-MEL-28 = test: Cytotoxicity against human SK-MEL-28 cells assessed as cell growth at 10 uM after 48 hrs by SRB assay relative to control; details: SK-MEL-28, 48 h, read-out: Activity
IGROV-1 = test: Cytotoxicity against human IGROV1 cells assessed as cell growth at 10 uM after 48 hrs by SRB assay relative to control; details: IGROV-1, 48 h, read-out: Activity
M14 = test: Cytotoxicity against human M14 cells assessed as cell growth at 10 uM after 48 hrs by SRB assay relative to control; details: M14, 48 h, read-out: Activity
HCC 2998 = test: Cytotoxicity against human HCC2998 cells assessed as cell growth at 10 uM after 48 hrs by SRB assay relative to control; details: HCC 2998, 48 h, read-out: Activity
NCI-H460 = test: Cytotoxicity against human NCI-H460 cells assessed as cell growth at 10 uM after 48 hrs by SRB assay relative to control; details: NCI-H460, 48 h, read-out: Activity
NCI-H522 = test: Cytotoxicity against human NCI-H522 cells assessed as cell growth at 10 uM after 48 hrs by SRB assay relative to control; details: NCI-H522, 48 h, read-out: Activity
DU-145 = test: Cytotoxicity against human DU145 cells assessed as cell growth at 10 uM after 48 hrs by SRB assay relative to control; details: DU-145, 48 h, read-out: Activity
SNB-19 = test: Cytotoxicity against human SNB19 cells assessed as cell growth at 10 uM after 48 hrs by SRB assay relative to control; details: SNB-19, 48 h, read-out: Activity
NCI-H226 = test: Cytotoxicity against human NCI-H226 cells assessed as cell growth at 10 uM after 48 hrs by SRB assay relative to control; details: NCI-H226, 48 h, read-out: Activity

Cn1cc(-c2c(-c3cn(C)c4ncccc34)nc(N)[nH]c2=O)c2ccccc21
growth at 10 µM (MDA-MB-468): 116% | growth at 10 µM (SW-620): 97.5% | growth at 10 µM (A498): 85.7% | Activity (MDA-MB-435): 98.77% | growth at 10 µM (SF-295): 98.2% | growth at 10 µM (SK-MEL-2): 105% | growth at 10 µM (RPMI-8226): 85.1% | growth at 10 µM (HCT-15): 103% | growth at 10 µM (ACHN): 87.6% | growth at 10 µM (MCF7): 86% | growth at 10 µM (RXF 393): 124% | growth at 10 µM (SNB-75): 87.5% | growth at 10 µM (KM12): 102% | growth at 10 µM (NCI-H23): 92.6% | growth at 10 µM (T47D): 83% | growth at 10 µM (SF-539): 104% | growth at 10 µM (HOP-62): 91.5% | growth at 10 µM (U-251): 77.5% | growth at 10 µM (BT-549): 95.8% | growth at 10 µM (NCI/ADR-RES): 101% | growth at 10 µM (UO-31): 79% | growth at 10 µM [1]: 101% | growth at 10 µM (TK-10): 113% | growth at 10 µM (Malme-3M): 107% | growth at 10 µM (SF-268): 101% | growth at 10 µM (UACC-257): 103% | growth at 10 µM (SK-MEL-28): 11% | growth at 10 µM (IGROV-1): 87.1% | growth at 10 µM (M14): 103% | growth at 10 µM (HCC 2998): 109% | growth at 10 µM (NCI-H460): 98.4% | growth at 10 µM (NCI-H522): 88% | growth at 10 µM (DU-145): 107% | growth at 10 µM (SNB-19): 111% | growth at 10 µM (NCI-H226): 84.2%
